# Reference: the supplement of paper PMC10307832
# Assays:
# Assay in all cases: relative viability (nuclei count vs DMSO), 5 days (fraction); higher = more cells survive
# NCI-H2087 = system: NCI-H2087
# Procedure, shortened: (§1)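 Five library-drug doses in √10 steps were combined with a fixed anchor-drug dose, or a single drug was given alone, by pin tool to lung cancer cell lines in 1536-well plates the day after seeding. Nuclei were stained and counted after 5 days. Relative viability is the nuclei count in treated wells over that in vehicle wells, taken as the median of duplicate plates.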
# NCI-H2126 = system: NCI-H2126
# Procedure, shortened: as §1
# NCI-H2347 = system: NCI-H2347
# Procedure, shortened: as §1
# NCI-H23 = system: NCI-H23
# Procedure, shortened: as §1
# NCI-H3122 = system: NCI-H3122
# Procedure, shortened: as §1
# NCI-H441 = system: NCI-H441
# Procedure, shortened: as §1
# NCI-H522 = system: NCI-H522
# Procedure, shortened: as §1
# NCI-H596 = system: NCI-H596
# Procedure, shortened: as §1
# NCI-H647 = system: NCI-H647
# Procedure, shortened: as §1
# NCI-H650 = system: NCI-H650
# Procedure, shortened: as §1
# NCI-H727 = system: NCI-H727
# Procedure, shortened: as §1
# NCI-H838 = system: NCI-H838
# Procedure, shortened: as §1
smiles,measurement,setting,value
COc1cc(N2CCC(C(N)=O)CC2)ccc1Nc1nc(N)c(Cl)c(Nc2ccccc2S(=O)(=O)C(C)C)n1 [HG-5-88-01] + CCNC(=O)c1noc(-c2cc(C(C)C)c(O)cc2O)c1-c1ccc(CN2CCOCC2)cc1 [Luminespib] (partner 0.01 µM),relative viability,NCI-H2087; first compound 0.04 µM,0.173
same,relative viability,NCI-H2087; first compound 0.1265 µM,0.228
same,relative viability,NCI-H2087; first compound 0.4 µM,0.173
same,relative viability,NCI-H2087; first compound 1.265 µM,0.19
same,relative viability,NCI-H2087; first compound 4 µM,0.204
same,relative viability,NCI-H2126; first compound 0.04 µM,0.836
same,relative viability,NCI-H2126; first compound 0.1265 µM,0.975
same,relative viability,NCI-H2126; first compound 0.4 µM,0.861
same,relative viability,NCI-H2126; first compound 1.265 µM,0.699
same,relative viability,NCI-H2126; first compound 4 µM,0.57
same,relative viability,NCI-H2347; first compound 0.04 µM,0.282
same,relative viability,NCI-H2347; first compound 0.1265 µM,0.467
same,relative viability,NCI-H2347; first compound 0.4 µM,0.32
same,relative viability,NCI-H2347; first compound 1.265 µM,0.398
same,relative viability,NCI-H2347; first compound 4 µM,0.339
same,relative viability,NCI-H23; first compound 0.04 µM,0.215
same,relative viability,NCI-H23; first compound 0.1265 µM,0.203
same,relative viability,NCI-H23; first compound 0.4 µM,0.225
same,relative viability,NCI-H23; first compound 1.265 µM,0.187
same,relative viability,NCI-H23; first compound 4 µM,0.241
same,relative viability,NCI-H3122; first compound 0.04 µM,0.0748
same,relative viability,NCI-H3122; first compound 0.1265 µM,0.11
same,relative viability,NCI-H3122; first compound 0.4 µM,0.106
same,relative viability,NCI-H3122; first compound 1.265 µM,0.115
same,relative viability,NCI-H3122; first compound 4 µM,0.0981
same,relative viability,NCI-H441; first compound 0.04 µM,0.284
same,relative viability,NCI-H441; first compound 0.1265 µM,0.292
same,relative viability,NCI-H441; first compound 0.4 µM,0.476
same,relative viability,NCI-H441; first compound 1.265 µM,0.248
same,relative viability,NCI-H441; first compound 4 µM,0.297
same,relative viability,NCI-H522; first compound 0.04 µM,1.06
same,relative viability,NCI-H522; first compound 0.1265 µM,1.16
same,relative viability,NCI-H522; first compound 0.4 µM,1.05
same,relative viability,NCI-H522; first compound 1.265 µM,0.852
same,relative viability,NCI-H522; first compound 4 µM,1.21
same,relative viability,NCI-H596; first compound 0.04 µM,1.18
same,relative viability,NCI-H596; first compound 0.1265 µM,1.09
same,relative viability,NCI-H596; first compound 0.4 µM,1.07
same,relative viability,NCI-H596; first compound 1.265 µM,1.17
same,relative viability,NCI-H596; first compound 4 µM,1.22
same,relative viability,NCI-H647; first compound 0.04 µM,0.25
same,relative viability,NCI-H647; first compound 0.1265 µM,0.363
same,relative viability,NCI-H647; first compound 0.4 µM,0.13
same,relative viability,NCI-H647; first compound 1.265 µM,0.148
same,relative viability,NCI-H647; first compound 4 µM,0.248
same,relative viability,NCI-H650; first compound 0.04 µM,0.87
same,relative viability,NCI-H650; first compound 0.1265 µM,0.802
same,relative viability,NCI-H650; first compound 0.4 µM,0.816
same,relative viability,NCI-H650; first compound 1.265 µM,0.63
same,relative viability,NCI-H650; first compound 4 µM,0.772
same,relative viability,NCI-H727; first compound 0.04 µM,0.566
same,relative viability,NCI-H727; first compound 0.1265 µM,0.344
same,relative viability,NCI-H727; first compound 0.4 µM,0.337
same,relative viability,NCI-H727; first compound 1.265 µM,0.313
same,relative viability,NCI-H727; first compound 4 µM,0.31
same,relative viability,NCI-H838; first compound 0.04 µM,0.322
same,relative viability,NCI-H838; first compound 0.1265 µM,0.288
same,relative viability,NCI-H838; first compound 0.4 µM,0.212
same,relative viability,NCI-H838; first compound 1.265 µM,0.276
same,relative viability,NCI-H838; first compound 4 µM,0.205
